Source: ChEMBL document CHEMBL4145497, “Discovery of 2-aminothiazolyl berberine derivatives as effectively antibacterial agents toward clinically drug-resistant Gram-negative Acinetobacter baumanii” (Eur J Med Chem, 2018)
Values after ≈ are worked out from the molar mass of the structure shown.

Key:
Assay type in all cases: functional
Staphylococcus aureus [1] = test: Antibacterial activity against Staphylococcus aureus ATCC 25923 after 18 to 24 hrs by CLSI two fold serial dilution method
Staphylococcus aureus [2] = test: Antibacterial activity against methicillin-resistant Staphylococcus aureus N315 after 18 to 24 hrs by CLSI two fold serial dilution method
Bacillus subtilis = test: Antibacterial activity against Bacillus subtilis ATCC 21216 after 18 to 24 hrs by CLSI two fold serial dilution method
Micrococcus luteus = test: Antibacterial activity against Micrococcus luteus ATCC 4698 after 18 to 24 hrs by CLSI two fold serial dilution method
Enterococcus faecalis = test: Antibacterial activity against drug-resistant Enterococcus faecalis after 18 to 24 hrs by CLSI two fold serial dilution method
Escherichia coli [3] = test: Antibacterial activity against Escherichia coli DH52 after 18 to 24 hrs by CLSI two fold serial dilution method
Escherichia coli [4] = test: Antibacterial activity against drug-resistant Escherichia coli after 18 to 24 hrs by CLSI two fold serial dilution method
Pseudomonas aeruginosa [5] = test: Antibacterial activity against Pseudomonas aeruginosa ATCC 27853 after 18 to 24 hrs by CLSI two fold serial dilution method
Pseudomonas aeruginosa [6] = test: Antibacterial activity against drug-resistant Pseudomonas aeruginosa after 18 to 24 hrs by CLSI two fold serial dilution method
Klebsiella pneumoniae = test: Antibacterial activity against drug-resistant Klebsiella pneumoniae after 18 to 24 hrs by CLSI two fold serial dilution method
Acinetobacter baumannii = test: Antibacterial activity against drug-resistant Acinetobacter baumannii after 18 to 24 hrs by CLSI two fold serial dilution method
Candida albicans [7] = test: Antifungal activity against Candida albicans ATCC 76615 by CLSI two fold serial dilution method
Cyberlindnera jadinii = test: Antifungal activity against Candida utilis ATCC 9950 by CLSI two fold serial dilution method; conditions: Williopsis jadinii
Pichia norvegensis = test: Antifungal activity against Candida mycoderma ATCC 96918 by CLSI two fold serial dilution method
Aspergillus flavus = test: Antifungal activity against Aspergillus flavus ATCC 204304 by CLSI two fold serial dilution method
Saccharomyces cerevisiae = test: Antifungal activity against Saccharomyces cerevisiae ATCC 9763 by CLSI two fold serial dilution method
Candida parapsilosis = test: Antifungal activity against Candida parapsilosis ATCC 22019 by CLSI two fold serial dilution method; conditions: Lodderomyces parapsilosis
Candida albicans [8] = test: Antifungal activity against drug-resistant Candida albicans by CLSI two fold serial dilution method
Candida tropicalis = test: Antifungal activity against drug-resistant Candida tropicalis by CLSI two fold serial dilution method
Aspergillus fumigatus = test: Antifungal activity against drug-resistant Aspergillus fumigatus by CLSI two fold serial dilution method

Structure (SMILES)	MIC (Staphylococcus aureus [1]) [µM]	MIC (Staphylococcus aureus [2]) [µM]	MIC (Bacillus subtilis) [µM]	MIC (Micrococcus luteus) [µM]	MIC (Enterococcus faecalis) [µM]	MIC (Escherichia coli [3]) [µM]	MIC (Escherichia coli [4]) [µM]	MIC (Pseudomonas aeruginosa [5]) [µM]	MIC (Pseudomonas aeruginosa [6]) [µM]	MIC (Klebsiella pneumoniae) [µM]	MIC (Acinetobacter baumannii) [µM]	MIC (Candida albicans [7]) [µM]	MIC (Cyberlindnera jadinii) [µM]	MIC (Pichia norvegensis) [µM]	MIC (Aspergillus flavus) [µM]	MIC (Saccharomyces cerevisiae) [µM]	MIC (Candida parapsilosis) [µM]	MIC (Candida albicans [8]) [µM]	MIC (Candida tropicalis) [µM]	MIC (Aspergillus fumigatus) [µM]
COc1cc(/C=N/NC(N)=S)c2c(c1OCc1ccccc1F)CN1CCc3cc4c(cc3C1C2)OCO4 (centres undefined)	30 (≈ 16 µg/mL)	30 (≈ 16 µg/mL)	240 (≈ 128 µg/mL)	240 (≈ 128 µg/mL)	240 (≈ 128 µg/mL)	240 (≈ 128 µg/mL)	240 (≈ 128 µg/mL)	480 (≈ 257 µg/mL)	480 (≈ 257 µg/mL)	480 (≈ 257 µg/mL)	4 (≈ 2.14 µg/mL)	480 (≈ 257 µg/mL)	480 (≈ 257 µg/mL)	240 (≈ 128 µg/mL)	480 (≈ 257 µg/mL)	960 (≈ 513 µg/mL)	240 (≈ 128 µg/mL)	480 (≈ 257 µg/mL)	120 (≈ 64.2 µg/mL)	4 (≈ 2.14 µg/mL)
COc1cc(/C=N/NC(N)=S)c2c(c1OCc1ccc(F)cc1)CN1CCc3cc4c(cc3C1C2)OCO4 (centres undefined)	120 (≈ 64.2 µg/mL)	120 (≈ 64.2 µg/mL)	480 (≈ 257 µg/mL)	480 (≈ 257 µg/mL)	120 (≈ 64.2 µg/mL)	240 (≈ 128 µg/mL)	240 (≈ 128 µg/mL)	240 (≈ 128 µg/mL)	240 (≈ 128 µg/mL)	480 (≈ 257 µg/mL)	8 (≈ 4.28 µg/mL)	120 (≈ 64.2 µg/mL)	480 (≈ 257 µg/mL)	240 (≈ 128 µg/mL)	480 (≈ 257 µg/mL)	240 (≈ 128 µg/mL)	60 (≈ 32.1 µg/mL)	120 (≈ 64.2 µg/mL)	120 (≈ 64.2 µg/mL)	120 (≈ 64.2 µg/mL)
COc1cc(/C=N/NC(N)=S)c2c(c1OCCO)CN1CCc3cc4c(cc3C1C2)OCO4 (centres undefined)	270 (≈ 127 µg/mL)	270 (≈ 127 µg/mL)	270 (≈ 127 µg/mL)	270 (≈ 127 µg/mL)	30 (≈ 14.1 µg/mL)	270 (≈ 127 µg/mL)	270 (≈ 127 µg/mL)	140 (≈ 65.9 µg/mL)	140 (≈ 65.9 µg/mL)	270 (≈ 127 µg/mL)	540 (≈ 254 µg/mL)	270 (≈ 127 µg/mL)	270 (≈ 127 µg/mL)	140 (≈ 65.9 µg/mL)	270 (≈ 127 µg/mL)	540 (≈ 254 µg/mL)	20 (≈ 9.41 µg/mL)	270 (≈ 127 µg/mL)	270 (≈ 127 µg/mL)	270 (≈ 127 µg/mL)
CCCCCCCCOc1c(OC)cc(/C=N/NC(N)=S)c2c1CN1CCc3cc4c(cc3C1C2)OCO4 (centres undefined)	60 (≈ 32.3 µg/mL)	120 (≈ 64.6 µg/mL)	240 (≈ 129 µg/mL)	240 (≈ 129 µg/mL)	120 (≈ 64.6 µg/mL)	240 (≈ 129 µg/mL)	240 (≈ 129 µg/mL)	120 (≈ 64.6 µg/mL)	120 (≈ 64.6 µg/mL)	240 (≈ 129 µg/mL)	240 (≈ 129 µg/mL)	240 (≈ 129 µg/mL)	240 (≈ 129 µg/mL)	240 (≈ 129 µg/mL)	240 (≈ 129 µg/mL)	480 (≈ 259 µg/mL)	120 (≈ 64.6 µg/mL)	240 (≈ 129 µg/mL)	120 (≈ 64.6 µg/mL)	60 (≈ 32.3 µg/mL)
CCCCCCCCCCCCOc1c(OC)cc(/C=N/NC(N)=S)c2c1CN1CCc3cc4c(cc3C1C2)OCO4 (centres undefined)	110 (≈ 65.4 µg/mL)	110 (≈ 65.4 µg/mL)	430 (≈ 256 µg/mL)	110 (≈ 65.4 µg/mL)	220 (≈ 131 µg/mL)	110 (≈ 65.4 µg/mL)	110 (≈ 65.4 µg/mL)	110 (≈ 65.4 µg/mL)	110 (≈ 65.4 µg/mL)	430 (≈ 256 µg/mL)	7 (≈ 4.16 µg/mL)	110 (≈ 65.4 µg/mL)	430 (≈ 256 µg/mL)	220 (≈ 131 µg/mL)	430 (≈ 256 µg/mL)	220 (≈ 131 µg/mL)	220 (≈ 131 µg/mL)	110 (≈ 65.4 µg/mL)	50 (≈ 29.7 µg/mL)	7 (≈ 4.16 µg/mL)
OC(Cn1cncn1)(Cn1cncn1)c1ccc(F)cc1F [FLUCONAZOLE]												3 (≈ 0.919 µg/mL)	30 (≈ 9.19 µg/mL)	10 (≈ 3.06 µg/mL)	840 (≈ 257 µg/mL)	50 (≈ 15.3 µg/mL)	7 (≈ 2.14 µg/mL)	10 (≈ 3.06 µg/mL)	30 (≈ 9.19 µg/mL)	840 (≈ 257 µg/mL)
COc1cc(/C=N/NC(N)=S)c2c(c1OCc1ccc(Cl)cc1Cl)CN1CCc3cc4c(cc3C1C2)OCO4 (centres undefined)	110 (≈ 64.4 µg/mL)	110 (≈ 64.4 µg/mL)	220 (≈ 129 µg/mL)	110 (≈ 64.4 µg/mL)	440 (≈ 258 µg/mL)	440 (≈ 258 µg/mL)	440 (≈ 258 µg/mL)	220 (≈ 129 µg/mL)	220 (≈ 129 µg/mL)	220 (≈ 129 µg/mL)	3 (≈ 1.76 µg/mL)	110 (≈ 64.4 µg/mL)	440 (≈ 258 µg/mL)	220 (≈ 129 µg/mL)	440 (≈ 258 µg/mL)	880 (≈ 515 µg/mL)	10 (≈ 5.86 µg/mL)	110 (≈ 64.4 µg/mL)	220 (≈ 129 µg/mL)	110 (≈ 64.4 µg/mL)
C=CCOc1c(OC)cc(/C=N/NC(N)=S)c2c1CN1CCc3cc4c(cc3C1C2)OCO4 (centres undefined)	70 (≈ 32.7 µg/mL)	70 (≈ 32.7 µg/mL)	270 (≈ 126 µg/mL)	270 (≈ 126 µg/mL)	140 (≈ 65.3 µg/mL)	140 (≈ 65.3 µg/mL)	140 (≈ 65.3 µg/mL)	140 (≈ 65.3 µg/mL)	140 (≈ 65.3 µg/mL)	550 (≈ 257 µg/mL)	70 (≈ 32.7 µg/mL)	140 (≈ 65.3 µg/mL)	270 (≈ 126 µg/mL)	270 (≈ 126 µg/mL)	270 (≈ 126 µg/mL)	550 (≈ 257 µg/mL)	30 (≈ 14 µg/mL)	140 (≈ 65.3 µg/mL)	70 (≈ 32.7 µg/mL)	70 (≈ 32.7 µg/mL)
